Some test systems named below: SF-268; HOP-92; EKVX; SN12C; HOP-62; OVCAR-5; RPMI-8226; NCI-H522; CCRF-CEM; NCI-H226; NCI-H460; TK-10; SW-620; LOX IMVI; SR; HL-60; HCC 2998.
Holding throughout (assay): DTP human tumour cell line panel, 48 h

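In this assay, cells in 96-well plates receive the compound at five concentrations for 48 hours. Endpoints are linearly interpolated between the surrounding concentrations. GI50 = concentration required for 50% inhibition of growth.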 The source made the active and inactive calls. Cut-off read from the data, not from the text of the source: active = GI50 up to about 1.1 µM and inactive = higher.

With `CC(C)(C)C(=C[S+]([O-])/N=C/c1ccccc1)C(C)(C)C` (stereo not drawn), the GI50 is 49.4 µM (inactive) in the assay with SF-268; 19.7 µM (inactive) with HOP-92; 52.1 µM (inactive) with EKVX; 21.1 µM (inactive) in the assay on SN12C; 37.8 µM (inactive) in the assay with HOP-62; 48.6 µM (inactive) in the assay on OVCAR-5. In addition, the GI50 in the assay on RPMI-8226 was 20.8 µM (inactive); in the assay on NCI-H522, 23 µM (inactive); in the assay on CCRF-CEM, 17.8 µM (inactive); with NCI-H226 it was 20.7 µM (inactive); with NCI-H460, 24.8 µM (inactive); in the assay with TK-10, > 100 µM (inactive). The values for the GI50 in the assay on SW-620, in the assay on LOX IMVI and with SR were 50 µM (inactive), 18.8 µM (inactive) and 24.7 µM (inactive), respectively.
For the compound `Cc1ccccc1-n1c(N)c(-c2nc3ccccc3[nH]2)sc1=S`, the GI50 in the assay on SF-268 was 29.6 µM (inactive); in the assay on EKVX, 53.5 µM (inactive); with HL-60, 26.1 µM (inactive); in the assay with SN12C, 26.4 µM (inactive); in the assay on HOP-62 it was 25 µM (inactive); in the assay with OVCAR-5, 37 µM (inactive). The GI50 with RPMI-8226 was 23.1 µM (inactive); in the assay on NCI-H522, 21.3 µM (inactive); in the assay on CCRF-CEM it was 36.5 µM (inactive); in the assay with NCI-H226 it was 36 µM (inactive); in the assay with TK-10, 39.3 µM (inactive); in the assay with SW-620 it was 31.1 µM (inactive). Besides, the GI50 in the assay on LOX IMVI was 28.1 µM (inactive); with HCC 2998, 18.3 µM (inactive).
With `N#CCC(=O)N1CCCOCCC1`, the GI50 in the assay with SF-268 is > 100 µM (inactive); with EKVX it was > 100 µM (inactive); in the assay on HL-60, 58.7 µM (inactive); with SN12C it was > 100 µM (inactive); in the assay on HOP-62, > 100 µM (inactive); in the assay on OVCAR-5, > 100 µM (inactive). Also, the GI50 was > 100 µM (inactive) in the assay with CCRF-CEM; > 100 µM (inactive) in the assay on NCI-H460; > 100 µM (inactive) with TK-10; 6.73 µM (inactive) in the assay on SW-620; 44.8 µM (inactive) in the assay on LOX IMVI; > 100 µM (inactive) in the assay with HCC 2998.
On to `O=S(=O)(CC1=NC2C=CC=CC2N=C1)NCc1ccccc1` (stereo not drawn), for which the GI50 in the assay with SF-268 was > 100 µM (inactive); in the assay with HOP-92, 75.3 µM (inactive); with EKVX, > 100 µM (inactive); in the assay on HL-60 it was 69.5 µM (inactive); in the assay with SN12C, > 100 µM (inactive); in the assay on HOP-62 it was > 100 µM (inactive). In addition, the GI50 was > 100 µM (inactive) with OVCAR-5; > 100 µM (inactive) in the assay on RPMI-8226; 76.2 µM (inactive) in the assay on NCI-H522; > 100 µM (inactive) with CCRF-CEM; 78.7 µM (inactive) in the assay on NCI-H226; > 100 µM (inactive) in the assay on NCI-H460. Besides, the GI50 with TK-10 is > 100 µM (inactive); in the assay on SW-620, > 100 µM (inactive); with LOX IMVI, > 100 µM (inactive); with HCC 2998, 0.0156 µM (active).
For `c1cc2ccc1C1NCCCN1CCN1CCCNC1c1ccc(cc1)C1NCCCN1CCN1CCCNC21` (stereo not drawn), the GI50 was > 100 µM (inactive) with SF-268; > 100 µM (inactive) in the assay on HOP-92; > 100 µM (inactive) with EKVX; 20.1 µM (inactive) in the assay on HL-60; > 100 µM (inactive) in the assay with SN12C; > 100 µM (inactive) in the assay with HOP-62. Moreover, the GI50 in the assay on OVCAR-5 was > 100 µM (inactive); with RPMI-8226, 70.6 µM (inactive); in the assay with NCI-H522, 23.1 µM (inactive); in the assay with CCRF-CEM, 41.8 µM (inactive); in the assay on NCI-H460, 77.3 µM (inactive); in the assay on TK-10 it was > 100 µM (inactive). In addition, the GI50 in the assay on SW-620 was 18.5 µM (inactive); in the assay with LOX IMVI it was 92.3 µM (inactive).
With `C#Cc1c(C)c(/C=C/C(C)=C/C(=O)OC)n(C)c1C`, the GI50 with SF-268 is 79.3 µM (inactive); in the assay on HOP-92, 25 µM (inactive); in the assay on EKVX, > 100 µM (inactive); in the assay on HL-60, 12.1 µM (inactive); in the assay with SN12C, > 100 µM (inactive); in the assay with HOP-62 it was > 100 µM (inactive). Moreover, the GI50 in the assay with OVCAR-5 was > 100 µM (inactive); with RPMI-8226, 40.3 µM (inactive); in the assay with NCI-H522 it was 71.8 µM (inactive); with CCRF-CEM it was 51.9 µM (inactive); in the assay with NCI-H226 it was > 100 µM (inactive); with TK-10, > 100 µM (inactive). Besides, the GI50 in the assay with SW-620 was > 100 µM (inactive); with LOX IMVI it was > 100 µM (inactive); in the assay on HCC 2998 it was 59 µM (inactive).
As for `N=C1CSC2=NC3=C(CCC/C3=C\c3ccccc3)C(c3ccccc3)N12` (stereo not drawn), the GI50 is 11.8 µM (inactive) with SF-268; 2.62 µM (inactive) in the assay with EKVX; 2.34 µM (inactive) in the assay with HL-60; 11.5 µM (inactive) in the assay on SN12C; 11 µM (inactive) in the assay on HOP-62; 6.53 µM (inactive) in the assay on OVCAR-5. The GI50 in the assay on RPMI-8226 is 2.16 µM (inactive); with NCI-H522 it was 2.61 µM (inactive); in the assay with CCRF-CEM, 2.24 µM (inactive); with NCI-H226, 6.38 µM (inactive); in the assay on NCI-H460 it was 3.42 µM (inactive); in the assay with TK-10, 5.28 µM (inactive). Moreover, the GI50 in the assay on SW-620 is 3.92 µM (inactive); in the assay on LOX IMVI, 2.26 µM (inactive); in the assay on HCC 2998, 3.31 µM (inactive).
As for `CC1=CC(=O)N2C(OC[C@@H]2c2ccccc2)O1` (stereo partly drawn), the GI50 with SF-268, in the assay on HOP-92, in the assay on EKVX, in the assay on HL-60, in the assay with SN12C and in the assay with HOP-62 was > 100 µM (inactive) in each case. Further, the GI50 with RPMI-8226, with NCI-H522, in the assay with CCRF-CEM, in the assay with NCI-H226, with NCI-H460 and in the assay with TK-10 was > 100 µM (inactive) in each case. The GI50 in the assay with SW-620 and with SR was > 100 µM (inactive) each time.
On to `CC(C)N1CN(C(C(=O)N[C@@H]2C(=O)N3C2SC(C)(C)C3C(=O)O)c2ccc(O)cc2)CSC1=S` (stereo partly drawn), for which the GI50 with SF-268, in the assay with HOP-92, in the assay with EKVX, in the assay with HL-60, in the assay on SN12C and in the assay on HOP-62 was > 100 µM (inactive) in each case. The GI50 was > 100 µM (inactive) with OVCAR-5; 94.2 µM (inactive) in the assay on RPMI-8226; 41 µM (inactive) in the assay on NCI-H522; 58.7 µM (inactive) in the assay with CCRF-CEM; > 100 µM (inactive) with NCI-H460; > 100 µM (inactive) in the assay with TK-10. Besides, the GI50 in the assay on SW-620 is 16.9 µM (inactive); in the assay on LOX IMVI, > 100 µM (inactive).
As for `O=C(CC(=O)N1N=C(n2ccc3ccccc32)CC1c1ccccc1)Nc1ccccc1Cl` (stereo not drawn), the GI50 was > 100 µM (inactive) in the assay on SF-268; 32.3 µM (inactive) in the assay on HOP-92; > 100 µM (inactive) with EKVX; > 100 µM (inactive) with HL-60; > 100 µM (inactive) in the assay on SN12C; > 100 µM (inactive) with HOP-62. The GI50 with RPMI-8226, in the assay on NCI-H522, in the assay on CCRF-CEM, in the assay with NCI-H460, with TK-10 and in the assay with SW-620 was > 100 µM (inactive) each time. Moreover, the GI50 with LOX IMVI and in the assay on HCC 2998 was > 100 µM (inactive) each time.
Regarding `O=C(NCCCCNc1cccccc1=O)OCc1ccccc1`, the GI50 with SF-268, in the assay on EKVX, in the assay on HL-60, in the assay on SN12C, in the assay on HOP-62 and with OVCAR-5 was > 100 µM (inactive) throughout. Also, the GI50 in the assay on RPMI-8226, in the assay with NCI-H522, in the assay with CCRF-CEM, in the assay with NCI-H226, in the assay on NCI-H460 and in the assay with TK-10 was > 100 µM (inactive) throughout. The GI50 with SW-620, with LOX IMVI and in the assay on HCC 2998 was > 100 µM (inactive) each time.
As to `COc1cc(C2C(Cl)C(=O)N2NC(=O)c2ccc(NC(C)=O)cc2)ccc1O` (stereo not drawn), the GI50 in the assay on SF-268, with HOP-92, in the assay on EKVX, in the assay on HL-60, in the assay on SN12C and in the assay with HOP-62 was > 100 µM (inactive) in each case. In addition, the GI50 with OVCAR-5, with RPMI-8226, with NCI-H522, in the assay on CCRF-CEM, with NCI-H226 and with NCI-H460 was > 100 µM (inactive) in each case. The GI50 with TK-10, in the assay with SW-620 and in the assay on LOX IMVI was > 100 µM (inactive) each time.
With `CC(=O)C1(O)CC2(c3ccccc3)C(=O)C1(c1ccccc1)C(c1ccccc1)=C2c1ccccc1` (stereo not drawn), the GI50 was > 100 µM (inactive) in the assay with SF-268; 80.9 µM (inactive) in the assay on HOP-92; > 100 µM (inactive) with EKVX; 29.4 µM (inactive) in the assay with HL-60; > 100 µM (inactive) in the assay with SN12C; > 100 µM (inactive) in the assay on HOP-62. Further, the GI50 with OVCAR-5 was 49.1 µM (inactive); in the assay on RPMI-8226 it was 16.5 µM (inactive); in the assay with NCI-H522, 66.8 µM (inactive); in the assay with CCRF-CEM, > 100 µM (inactive); with NCI-H226 it was > 100 µM (inactive); in the assay with NCI-H460 it was > 100 µM (inactive). Besides, the GI50 in the assay with TK-10 was > 100 µM (inactive); in the assay on SW-620 it was > 100 µM (inactive); with LOX IMVI, > 100 µM (inactive); in the assay on SR, 85.1 µM (inactive).
With `Cc1ccc(NC(=O)C(=O)CC(=O)c2ccccc2)cc1C`, the GI50 with SF-268, in the assay on HOP-92, in the assay on EKVX, in the assay with SN12C, in the assay on HOP-62 and in the assay on OVCAR-5 was > 100 µM (inactive) throughout. The GI50 in the assay on RPMI-8226 is > 100 µM (inactive); with NCI-H522, 98.9 µM (inactive); in the assay with NCI-H226, > 100 µM (inactive); in the assay with NCI-H460 it was > 100 µM (inactive); in the assay on TK-10, > 100 µM (inactive); in the assay with SW-620, > 100 µM (inactive). The GI50 in the assay on LOX IMVI and in the assay on HCC 2998 was > 100 µM (inactive) in each case.

Broadly, the GI50 is the concentration that inhibits growth by half.

The record behind these values is ChEMBL document CHEMBL1201862, “PubChem BioAssay data set” (2004).
